{
  "source": "ChEMBL document CHEMBL1154424",
  "about": "“Effect of delayed pulsed-wave ultrasound on local pharmacokinetics and pharmacodynamics of vancomycin-loaded acrylic bone cement in vivo” (Antimicrob Agents Chemother, 2007)",
  "key": {"Staphylococcus aureus [1]": {"system": "Staphylococcus aureus", "assay": "(§1) Antimicrobial activity against Staphylococcus aureus ATCC 13565 infected in New Zealand white rabbit assessed as reduction of bacterial count in hip aspirates at 3 g administered drug-loaded in acrylic bone cement implanted in hips treated with 300 mW/cm2 normal ultrasound for 0 to 12 hrs after surgery", "assay_type": "functional"}, "Oryctolagus cuniculus [2]": {"system": "Oryctolagus cuniculus", "assay": "Effect on local hemorrhage in Staphylococcus aureus ATCC 13565 infected New Zealand white rabbit hip assessed as total volume of drainage fluid at 3 g administered drug-loaded acrylic bone cement implanted in hips treated with 300 mW/cm2 normal ultrasound for 12 to 24 hrs after surgery", "assay_type": "ADME, organism-based", "conditions": "in vivo, other"}, "Staphylococcus aureus [3]": {"system": "Staphylococcus aureus", "assay": "T>MIC in Staphylococcus aureus ATCC 13565 infected New Zealand white rabbit at 3 g administered drug-loaded acrylic bone cement implanted in hips at 3 g exposed to 300 mW/cm2 delayed ultrasound for 0 to 12 hrs", "assay_type": "ADME, organism-based", "conditions": "in vivo, other"}, "Staphylococcus aureus [4]": {"system": "Staphylococcus aureus", "assay": "as §1, with “per gram of femoral tissue” for “in hip aspirates”", "assay_type": "functional"}, "Oryctolagus cuniculus [5]": {"system": "Oryctolagus cuniculus", "assay": "Effect on local hemorrhage in Staphylococcus aureus ATCC 13565 infected New Zealand white rabbit hip assessed as total volume of drainage fluid at 3 g administered drug-loaded acrylic bone cement implanted in hips treated with 300 mW/cm2 normal ultrasound for 0 to 12 hrs after surgery", "assay_type": "ADME, organism-based", "conditions": "in vivo, other"}, "Staphylococcus aureus [6]": {"system": "Staphylococcus aureus", "assay": "microbe, parasite or virus in culture", "conditions": "ATCC 13565", "description": "Antibacterial activity against Staphylococcus aureus ATCC 13565 by tube dilution method"}, "Staphylococcus aureus [7]": {"system": "Staphylococcus aureus", "assay": "as §1, with “count per gram of femoral tissue” for “count in hip aspirates”, “for 12” for “for 0”, “to 24” for “to 12”", "assay_type": "functional"}, "Staphylococcus aureus [8]": {"system": "Staphylococcus aureus", "assay": "T>MIC in Staphylococcus aureus ATCC 13565 infected New Zealand white rabbit at 3 g administered drug-loaded acrylic bone cement implanted in hips exposed to 300 mW/cm2 delayed ultrasound for 12 to 24 hrs", "assay_type": "ADME, organism-based", "conditions": "in vivo, other"}, "Staphylococcus aureus [9]": {"system": "Staphylococcus aureus", "assay": "as §1, with “for 12” for “for 0”, “to 24” for “to 12”", "assay_type": "functional"}, "Staphylococcus aureus [10]": {"system": "Staphylococcus aureus", "assay": "T>MIC in Staphylococcus aureus ATCC 13565 infected New Zealand white rabbit at 3 g administered drug-loaded acrylic bone cement implanted in hips after 48 hrs surgery without ultrasound", "assay_type": "ADME, organism-based", "conditions": "in vivo, other"}},
  "data": [
    {"smiles": "CN[C@H](CC(C)C)C(=O)N[C@H]1C(=O)N[C@@H](CC(N)=O)C(=O)N[C@H]2C(=O)N[C@H]3C(=O)N[C@H](C(=O)N[C@H](C(=O)O)c4cc(O)cc(O)c4-c4cc3ccc4O)[C@H](O)c3ccc(c(Cl)c3)Oc3cc2cc(c3O[C@@H]2O[C@H](CO)[C@@H](O)[C@H](O)[C@H]2O[C@H]2C[C@](C)(N)[C@H](O)[C@H](C)O2)Oc2ccc(cc2Cl)[C@H]1O", "note": "[VANCOMYCIN]", "values": [
      {"measurement": "log10CFU/ml", "setting": "Staphylococcus aureus [1]", "value": 1.62},
      {"measurement": "Activity", "setting": "Oryctolagus cuniculus [2]", "value": 1.32, "unit": "mL"},
      {"measurement": "T>MIC", "setting": "Staphylococcus aureus [3]", "value": 13.59, "unit": "h"},
      {"measurement": "log10cfu", "setting": "Staphylococcus aureus [4]", "value": 0.53},
      {"measurement": "Activity", "setting": "Oryctolagus cuniculus [5]", "value": 4.65, "unit": "mL"},
      {"measurement": "MBC", "setting": "Staphylococcus aureus [6]", "value": 3, "unit": "µg/mL"},
      {"measurement": "log10cfu", "setting": "Staphylococcus aureus [7]", "value": 1.29},
      {"measurement": "T>MIC", "setting": "Staphylococcus aureus [8]", "value": 35.4, "unit": "h"},
      {"measurement": "log10CFU/ml", "setting": "Staphylococcus aureus [9]", "value": 2.77},
      {"measurement": "T>MIC", "setting": "Staphylococcus aureus [10]", "value": 14.89, "unit": "h"}
    ]}
  ]
}
